Holding throughout (format): functional, Homo sapiens
What all share (parameters): dose or concentration left out as unconfirmed

For assay [1], the system named is Colon cancer organoid. Kind of assay: Optimized Dual-Glo assay to identify co-culture induced drug vulnerabilities using donated chemical probes and chemogenomics kinase set in O06 CRC organoid and F06 CAF mono and co-culture. […] Cell viability is reported both mono and co-culture models.
The subject of assay [2] is Colon cancer organoid. Description: Optimized Dual-Glo assay to identify co-culture induced drug vulnerabilities using donated chemical probes and chemogenomics kinase set in O14 CRC organoid and F14 CAF mono and co-culture. […] Cell viability is reported both mono and co-culture models.
For assay [3], the system named is Colon cancer organoid. Description: Optimized Dual-Glo assay to identify co-culture induced drug vulnerabilities using donated chemical probes and chemogenomics kinase set in O20 CRC organoid and F20 CAF mono and co-culture. […] Cell viability is reported both mono and co-culture models.
[4] abbreviates: Culture type Co-Culture, Transduced with Lucferase2-P2A-EGFP lentivirus.
[5] abbreviates: Culture type Co-Culture, Transduced with Renilla-dsRed lentivirus.
The mark [6] stands for this setting: Culture type Mono-Culture, Transduced with Lucferase2-P2A-EGFP lentivirus.
Where [7] appears, read: Culture type Mono-Culture, Transduced with Renilla-dsRed lentivirus.

`CCC(=O)N[C@H]1CC[C@@H](C(=O)N(C)c2ccc(-c3nc4ccccc4o3)cc2)C1` [BI 99179]: the “Cell Viability” value in assay [1] (setting [4]) is 7.905%; in assay [1] (setting [5]), 448.988%; in assay [1] (setting [6]) it was 13.2074%; in assay [1] (setting [7]) it was 86.3048%; in assay [2] (setting [4]) it was 36.4327%; in assay [2] (setting [5]), 197.223%. In addition, the “Cell Viability” value in assay [2] (setting [6]) was determined as 76.5692%; in assay [2] (setting [7]) it was 108.528%; in assay [3] (setting [4]) it was 33.9891%; in assay [3] (setting [5]), 149.12%; in assay [3] (setting [6]), 57.7768%; in assay [3] (setting [7]), 75.3735%.

As to `CCC(=O)N[C@@H]1CC[C@H](C(=O)N(C)c2ccc(-c3nc4ccccc4o3)cc2)C1` [BI 99990], the “Cell Viability” value worked out at 135.832% in assay [1] (setting [4]); 173.184% in assay [1] (setting [5]); 107.841% in assay [1] (setting [6]); 87.7071% in assay [1] (setting [7]); 87.159% in assay [2] (setting [4]); 112.98% in assay [2] (setting [5]). Also, the “Cell Viability” value in assay [2] (setting [6]) is listed as 99.3505%; in assay [2] (setting [7]) it was 100.76%; in assay [3] (setting [4]), 115.817%; in assay [3] (setting [5]), 121.154%; in assay [3] (setting [6]) it was 99.9084%; in assay [3] (setting [7]) it was 146.017%.

On to `CCS(=O)(=O)c1cc2cc(C[C@](O)(CC(C)(C)c3ccc(F)cc3C(N)=O)C(F)(F)F)[nH]c2cn1` [BI 653048], for which the “Cell Viability” value in assay [1] (setting [4]) is 136.436%; in assay [1] (setting [5]), 297.33%; in assay [1] (setting [6]) it was 97.0766%; in assay [1] (setting [7]), 179.661%; in assay [2] (setting [4]) it was 98.1614%; in assay [2] (setting [5]), 169.499%. For the same molecule, the “Cell Viability” value in assay [2] (setting [6]) turned out to be 94.8893%; in assay [2] (setting [7]), 163.254%; in assay [3] (setting [4]), 85.6205%; in assay [3] (setting [5]), 287.465%; in assay [3] (setting [6]), 124.389%; in assay [3] (setting [7]), 135.577%.

For the molecule `CC[C@H](CC(=O)O)n1c(=O)c2ncccc2n(Cc2cn(C)c3cc(C)cc(C)c23)c1=O` [BI-1942], the “Cell Viability” value amounted to 119.907% in assay [1] (setting [4]); 136.619% in assay [1] (setting [5]); 121.189% in assay [1] (setting [6]); 103.918% in assay [1] (setting [7]); 138.147% in assay [2] (setting [4]); 85.0736% in assay [2] (setting [5]). In addition, the “Cell Viability” value in assay [2] (setting [6]) turned out to be 117.29%; in assay [2] (setting [7]), 91.8874%; in assay [3] (setting [4]) it was 107.514%; in assay [3] (setting [5]), 100.799%; in assay [3] (setting [6]), 88.7956%; in assay [3] (setting [7]) it was 92.5825%.

For the molecule `CC[C@@H]1C(=O)N(C)c2cnc(Nc3ccc(C(=O)NC4CCN(C)CC4)cc3OC)nc2N1C1CCCC1` [BI-2536], the “Cell Viability” value in assay [1] (setting [4]) was found to be 3.341%; in assay [1] (setting [5]), 324.743%; in assay [1] (setting [6]), 5.694%; in assay [1] (setting [7]), 205.81%; in assay [2] (setting [4]), 6.08%; in assay [2] (setting [5]), 320.789%. The “Cell Viability” value in assay [2] (setting [6]) came out at 25.6478%; in assay [2] (setting [7]), 192.03%; in assay [3] (setting [4]), 3.7112%; in assay [3] (setting [5]), 168.723%; in assay [3] (setting [6]) it was 5.1365%; in assay [3] (setting [7]), 106.916%.

For the molecule `CN(C)C(=O)c1sc2nc(N3CCC(S(C)(=O)=O)CC3)cc(C(F)(F)F)c2c1N` [BI-5026], the “Cell Viability” value in assay [1] (setting [4]) was found to be 108.851%; in assay [1] (setting [5]) it was 103.89%; in assay [1] (setting [6]), 124.761%; in assay [1] (setting [7]) it was 97.708%; in assay [2] (setting [4]) it was 89.3398%; in assay [2] (setting [5]) it was 95.8994%. The “Cell Viability” value in assay [2] (setting [6]) is recorded as 89.8333%; in assay [2] (setting [7]), 92.7462%; in assay [3] (setting [4]), 82.5801%; in assay [3] (setting [5]), 112.021%; in assay [3] (setting [6]), 96.6036%; in assay [3] (setting [7]), 91.1442%.

As for `CCC(F)(F)c1cc(N2CCC(S(C)(=O)=O)CC2)nc2sc(C(N)=O)c(N)c12` [BI-605906], the “Cell Viability” value stood at 93.6384% in assay [1] (setting [4]); 92.3898% in assay [1] (setting [5]); 93.147% in assay [1] (setting [6]); 102.109% in assay [1] (setting [7]); 108.411% in assay [2] (setting [4]); 90.1855% in assay [2] (setting [5]). For the same molecule, the “Cell Viability” value amounted to 95.9322% in assay [2] (setting [6]); 83.0517% in assay [2] (setting [7]); 178.631% in assay [3] (setting [4]); 81.0914% in assay [3] (setting [5]); 102.635% in assay [3] (setting [6]); 91.2338% in assay [3] (setting [7]).

As for `CCOc1ccn(-c2ccc(F)cc2)c(=O)c1C(=O)Nc1ccc(Oc2ccnc(N)c2Cl)c(F)c1` [BMS-777607], the “Cell Viability” value in assay [1] (setting [4]) stood at 91.8113%; in assay [1] (setting [5]), 94.0587%; in assay [1] (setting [6]) it was 160.363%; in assay [1] (setting [7]) it was 101.253%; in assay [2] (setting [4]), 80.1334%; in assay [2] (setting [5]), 87.7624%. Further, the “Cell Viability” value worked out at 119.97% in assay [2] (setting [6]); 83.2963% in assay [2] (setting [7]); 100.473% in assay [3] (setting [4]); 72.8578% in assay [3] (setting [5]); 109.106% in assay [3] (setting [6]); 74.8704% in assay [3] (setting [7]).

On to `O=c1nc(-c2ccccn2)sc2ccccc12` [BTZO-1], for which the “Cell Viability” value was found to be 150.72% in assay [1] (setting [4]); 152.299% in assay [1] (setting [5]); 108.701% in assay [1] (setting [6]); 93.9423% in assay [1] (setting [7]); 72.8422% in assay [2] (setting [4]); 97.4125% in assay [2] (setting [5]). Moreover, the “Cell Viability” value in assay [2] (setting [6]) came out at 100.899%; in assay [2] (setting [7]), 88.8475%; in assay [3] (setting [4]), 113.092%; in assay [3] (setting [5]) it was 104.485%; in assay [3] (setting [6]), 93.617%; in assay [3] (setting [7]), 87.2617%.

In the case of `O=C1NC(c2ccccn2)Sc2ccccc21` (stereo not drawn) [BTZO-4], the “Cell Viability” value in assay [1] (setting [4]) is listed as 120.289%; in assay [1] (setting [5]), 168.274%; in assay [1] (setting [6]), 120.842%; in assay [1] (setting [7]) it was 96.0026%; in assay [2] (setting [4]) it was 61.6346%; in assay [2] (setting [5]), 107.214%. Also, the “Cell Viability” value was found to be 121.016% in assay [2] (setting [6]); 104.244% in assay [2] (setting [7]); 109.35% in assay [3] (setting [4]); 85.8309% in assay [3] (setting [5]); 124.511% in assay [3] (setting [6]); 93.402% in assay [3] (setting [7]).

For `C=CC(=O)Nc1ccc2[nH]c(=O)n(C3CCN(Cc4ccc(-c5nc6cc[nH]c(=O)c6cc5-c5ccccc5)cc4)CC3)c2c1` [Borussertib], the “Cell Viability” value in assay [1] (setting [4]) was 51.8578%; in assay [1] (setting [5]) it was 132.383%; in assay [1] (setting [6]), 55.1299%; in assay [1] (setting [7]), 71.4174%; in assay [2] (setting [4]) it was 51.6115%; in assay [2] (setting [5]), 159.043%. Also, the “Cell Viability” value in assay [2] (setting [6]) is reported as 54.7811%; in assay [2] (setting [7]), 69.4418%; in assay [3] (setting [4]) it was 47.4641%; in assay [3] (setting [5]), 149.193%; in assay [3] (setting [6]), 22.6881%; in assay [3] (setting [7]) it was 97.2977%.

As for `O=C(NOCC1CC1)c1ccc(F)c(F)c1Nc1ccc(I)cc1Cl` [CI-1040], the “Cell Viability” value in assay [1] (setting [4]) is 38.2974%; in assay [1] (setting [5]), 73.8424%; in assay [1] (setting [6]) it was 7.023%; in assay [1] (setting [7]) it was 67.7326%; in assay [2] (setting [4]), 16.7737%; in assay [2] (setting [5]), 86.2158%. Moreover, the “Cell Viability” value in assay [2] (setting [6]) came to 10.461%; in assay [2] (setting [7]), 42.9063%; in assay [3] (setting [4]), 43.8229%; in assay [3] (setting [5]) it was 195.336%; in assay [3] (setting [6]), 27.7103%; in assay [3] (setting [7]) it was 59.0843%.

Take `O=C(c1ccc(F)c(F)c1Nc1ccc(I)cc1F)N1CC(O)([C@@H]2CCCCN2)C1` [COBIMETINIB]: the “Cell Viability” value was found to be 5.143% in assay [1] (setting [4]); 42.4292% in assay [1] (setting [5]); 6.053% in assay [1] (setting [6]); 35.0976% in assay [1] (setting [7]); 2.787% in assay [2] (setting [4]); 24.389% in assay [2] (setting [5]). Also, the “Cell Viability” value in assay [2] (setting [6]) is recorded as 1.583%; in assay [2] (setting [7]) it was 12.612%; in assay [3] (setting [4]) it was 4.023%; in assay [3] (setting [5]), 77.761%; in assay [3] (setting [6]) it was 4.662%; in assay [3] (setting [7]) it was 37.2771%.

For `COc1c(OCCCN2CCOCC2)ccc2c1N=C(NC(=O)c1cnc(N)nc1)N1CCN=C21` [COPANLISIB], the “Cell Viability” value in assay [1] (setting [4]) came to 1.487%; in assay [1] (setting [5]), 40.0213%; in assay [1] (setting [6]), 1.127%; in assay [1] (setting [7]) it was 24.3347%; in assay [2] (setting [4]), 3.879%; in assay [2] (setting [5]), 63.1617%. Further, the “Cell Viability” value in assay [2] (setting [6]) is recorded as 2.323%; in assay [2] (setting [7]) it was 50.5605%; in assay [3] (setting [4]), 2.276%; in assay [3] (setting [5]) it was 117.524%; in assay [3] (setting [6]) it was 0.6907%; in assay [3] (setting [7]), 109.388%.

(Values after ChEMBL document CHEMBL5674860, “Optimized Dual-Glo Assay to identify co-culture-induced drug vulnerabilities in 3D CRC models” (2024).)
